In PubChem BioAssay AID464 (The Scripps Research Institute Molecular Screening Center, 2006):
Calls of active or inactive are those of the source.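 How the source made its calls: active means Compounds that kill half the cells at a concentration of 5 micromolar or below, from the fitted or estimated CC50; inactive means CC50 above 5 micromolar.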

System: Jurkat E6.1 viability, ATP luminescence, 48 h
Assay: Jurkat E6.1 cell cytotoxicity, CC50 determination, dose response, cytotoxicity control, ATP luminescence, 48 h, 60K MLSMR (AID 464)

SMILES | CC50
CCC(C)Oc1ccccc1C1CC(=O)NC2=C1C(=O)CCC2 (configuration not stated) | 4.73 µM
N#Cc1nc(N2CCCCC2)nc(N2CCOCC2)n1 | 12.9 µM (inactive)
O=c1cc(-c2ccccc2)[nH]c2ccccc12 | 0.373 µM
CC1CC(C)CN(S(=O)(=O)c2ccc(C(=O)Nc3nnc(-c4cccs4)o3)cc2)C1 (configuration not stated) | 12.9 µM (inactive)
Cc1cc(NC(=O)COC(=O)c2ccc(S(=O)(=O)N3CCCc4ccccc43)cc2)no1 | 2.16 µM
O=C(Nc1nccs1)c1ccc(S(=O)(=O)NCC2CCCCC2)cc1 | > 40 µM (inactive)
COc1ccc(CC(=O)Nc2cccc(-c3nnc(-c4cccc(C)c4)o3)c2)cc1OC | 7.1 µM (inactive)
CCOC(=O)C1=C(N)n2c(s/c(=C\c3cccs3)c2=O)=C(C(=O)OCC)C1c1cccs1 (configuration not stated) | 4.39 µM
COc1cccc(N2CCN(C(=O)c3[nH]c(C)c(C(C)=O)c3C)CC2)c1 | 1.74 µM
CCOC(=O)CCS(=O)(=O)c1nc(-c2ccccc2)cc(C(F)(F)F)n1 | 4.58 µM
Cc1cccc(Cn2c(NCC(C)O)nc3c2c(=O)n(C)c(=O)n3C)c1 (configuration not stated) | 8.24 µM (inactive)
COc1ccccc1-c1nnc2sc(-c3cc4ccccc4o3)nn12 | 0.214 µM
COc1ccc(Cn2c(=O)oc3ccc(C)cc32)cc1OC | 13.1 µM (inactive)
COc1cccc(N2C(N)=NC(N)=NC2(C)C)c1 | 2.58 µM
COc1ccc(C2NCc3ccc4c(c3-n3cccc32)OCO4)cc1O (configuration not stated) | 0.999 µM
CCOc1cc(C#N)c(NC(=O)c2cccnc2)cc1OCC | 1.51 µM
O=C(Nc1ccccc1C(F)(F)F)c1cc(-c2ccccc2O)on1 | > 40 µM (inactive)
Cc1nc2ccccn2c1-c1csc(NCc2ccco2)n1 | > 40 µM (inactive)
CCC1CCCCN1S(=O)(=O)c1ccc(C(=O)Nc2nnc(-c3cccs3)o2)cc1 (configuration not stated) | 11.6 µM (inactive)
Oc1cccc2ccc(Nc3ccccn3)nc12 | 1.97 µM
CCOC(=O)c1oc2ccc(S(=O)(=O)Nc3ccc4c(c3)n(C)c(=O)n4C)cc2c1C | 11.3 µM (inactive)
COc1cccc(OC)c1-c1nn2c(-c3cc(-c4ccccc4)n[nH]3)nnc2s1 | 8.6 µM (inactive)
N=c1c2c(n(Cc3ccccc3)c3c1CCC3)CCC2 | 3.66 µM

SMILES | CC50
Cc1conc1NC(c1cccs1)c1ccc2cccnc2c1O (configuration not stated) | > 13 µM (inactive)
CN(C)c1nc(N)nc(CSc2nnnn2-c2cccc3ccccc23)n1 | 6.97 µM (inactive)
COc1ccc(CC(=O)Nc2nc(C)cs2)cc1OC | 23.4 µM (inactive)
CC1=C(C)CS(=O)N(S(=O)(=O)c2ccc(Cl)cc2)C1 (configuration not stated) | 2.96 µM
CCOc1ccc(S(=O)(=O)Nc2cc(OC)ccc2OC)cc1 | 0.145 µM
CCCOc1ccccc1C1CC(=O)NC2=C1C(=O)CCC2 (configuration not stated) | 1.52 µM
COc1cc(NS(=O)(=O)c2ccc3c(c2)oc(=O)n3C)cc(OC)c1OC | 5.88 µM (inactive)
CCn1c(=O)c(C(=O)Nc2nc3ccccc3[nH]2)c(O)c2ccccc21 | 14.3 µM (inactive)
CCOc1ccccc1C1CC(=O)Nc2cc3c(cc21)OCCO3 (configuration not stated) | 0.625 µM
Cc1c(C(=O)OCC2CCCO2)[nH]c2c1C(=O)CC(c1ccco1)C2 (configuration not stated) | 2.6 µM
CCc1ccc(NS(=O)(=O)c2cc(OC)ccc2OC)cc1 | 16.6 µM (inactive)
Cc1cc(C)cc(NS(=O)(=O)c2ccc3[nH]cc(C(=O)NCc4ccco4)c(=O)c3c2)c1 | 5.48 µM (inactive)
O=C(CCCc1nc(-c2ccc(Cl)cc2)no1)Nc1cccnc1 | 5.56 µM (inactive)
O=C(CSc1nnnn1-c1ccc2c(c1)OCO2)NCc1ccccc1 | > 4.4 µM (inactive)
COc1ccc(C(=O)C(CN2CCOCC2)c2ccccc2)cc1F (configuration not stated) | 5.09 µM (inactive)
O=C(NCc1cccc(F)c1)c1noc2c1CCCC2 | 8.73 µM (inactive)
CCOC(=O)c1nc(S(C)(=O)=O)ncc1Cl | 4.66 µM
CC(=O)Nc1ccc(S(=O)(=O)N2CCCc3ccccc32)cc1 | 3.07 µM
CCOC(=O)CSC1=C(C#N)C(c2ccc(C)s2)CC(=O)N1 (configuration not stated) | 1.56 µM
CCOC(=O)N1CCN(C(=O)C2CCCN(Cc3nc(-c4ccc(Cl)cc4)oc3C)C2)CC1 (configuration not stated) | 4.64 µM
CCN(CC)c1ccc2cc(-c3nc4ccccc4n3C)c(=O)oc2c1 | 0.32 µM
O=c1cc(Nc2ccc3c(c2)OCCO3)[nH]c(=O)n1C1CCCCC1 | 11.7 µM (inactive)
Cn1c(=O)c2c(nc(NCc3ccco3)n2C/C=C/c2ccccc2)n(C)c1=O | 9.36 µM (inactive)

SMILES | CC50
CCCCN(CC)S(=O)(=O)c1ccc(C(=O)Nc2nnc(-c3cccs3)o2)cc1 | 13.9 µM (inactive)
COc1ccc(NC(=O)c2cnc(C)cn2)c2ncccc12 | 5.63 µM (inactive)
CCCCN(CC)S(=O)(=O)c1ccc(C(=O)Nc2nnc(CSC)o2)cc1 | 37.6 µM (inactive)
O=C(c1cc2c(s1)-c1ccccc1OC2)N1CCC2(CC1)OCCO2 | 6.1 µM (inactive)
Brc1ccc(C2=Nn3c(nnc3-c3n[nH]c4c3CCC4)SC2)cc1 | 0.313 µM
CCc1ccc(CCC(=O)Nc2sc3c(c2C#N)CCCC3)o1 | 3.05 µM
O=S1(=O)Nc2c(ccc3cccnc23)-c2ccccc21 | 4.74 µM
O=C(CSc1nnnn1C1CC2CCC1C2)Nc1ccnc2ccccc12 (configuration not stated) | 0.092 µM
CCOC(=O)c1[nH]c(C)c(C(=O)Nc2cccc(Cl)c2C)c1C | 3.8 µM
CCCCN(C)S(=O)(=O)c1ccc(C(=O)Nc2nnc(-c3cccs3)o2)cc1 | 14.1 µM (inactive)
Nc1c(C(=O)Nc2ccc3c(c2)OCCO3)nnn1CCc1ccccc1 | 4.23 µM
O=C(NC1CC1)c1cc2c(s1)-c1ccccc1OC2 | 15.6 µM (inactive)
Cn1ncnc2c(=O)n(C)c(=O)nc1-2 | 2.06 µM
Cc1nn(C)c(C)c1CNC(=O)c1nn2c(c1Cl)NC(c1cccs1)CC2C(F)(F)F (configuration not stated) | 15.2 µM (inactive)
CCOc1cccc(-n2nnnc2-c2ccc(OC)cc2)c1 | 1.06 µM
Cn1c(-c2ccccc2)cc2c3no[n+]([O-])c3ccc21 | 2.41 µM
CC(C)(C)n1ncc2c(=O)n(CC(=O)NCc3ccc(F)cc3)cnc21 | 5.13 µM (inactive)
COc1ccccc1C1CC(=O)Nc2cc3c(cc21)OCCO3 (configuration not stated) | 0.912 µM
Cc1onc(-c2ccccc2Cl)c1C(=O)N1CCN(c2cccc(Cl)c2)CC1 | 0.832 µM
COc1ccc(S(=O)(=O)Cc2ccc(C(=O)N3CCN(c4cccc(C)c4)C(C)C3)o2)cc1 (configuration not stated) | 1.6 µM
O=C(N1CCN(c2ccccn2)CC1)N1c2ccccc2Sc2ccccc21 | 0.669 µM
